Measured values from patent publication US7919508B2, “3-piperidinylisochroman-5-ols as dopamine agonists” (Aventis Pharmaceuticals Inc., priority 2004, dated 2011).
Structures can show the parent of a compound that is named as a salt.

Tests used:
[1] = molecular target: T1, human dopamine D1 receptor (Homo sapiens, UniProt P21728); test: [3H]-SCH-23390 binding to cloned human dopamine D1 receptors (CHO cell membranes); settings: competitive binding, [3H]-SCH-23390, cloned human D1 in CHO membranes; read-out: D1 affinity Ki
T1 construct: A 1.4 Kb Hind III to Xho I fragment was subcloned into the vector pMMLV; expressed in transfected cells; host or cells: CHO cells, clone CHO-D1M#9 (plasmid pHD1MMLV), membranes
T1 sequence (P21728 whole entry, the tested form may be a part): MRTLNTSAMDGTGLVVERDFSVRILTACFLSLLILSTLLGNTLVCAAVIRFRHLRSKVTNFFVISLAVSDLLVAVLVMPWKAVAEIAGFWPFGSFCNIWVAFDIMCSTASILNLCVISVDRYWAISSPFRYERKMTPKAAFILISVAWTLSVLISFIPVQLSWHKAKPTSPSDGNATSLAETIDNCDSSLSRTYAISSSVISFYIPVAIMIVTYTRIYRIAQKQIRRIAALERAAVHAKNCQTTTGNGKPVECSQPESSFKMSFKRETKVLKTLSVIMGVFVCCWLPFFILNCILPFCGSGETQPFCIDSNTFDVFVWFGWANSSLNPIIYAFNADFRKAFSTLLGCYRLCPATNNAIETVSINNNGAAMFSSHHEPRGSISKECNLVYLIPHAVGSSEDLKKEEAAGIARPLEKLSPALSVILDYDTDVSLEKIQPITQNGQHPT
Method: [^3H]-SCH-23390 Binding to Cloned Human Dopamine D1 Receptors
Determination of relative binding affinity of potential neuropsychiatric and other agents for the human dopamine D1 receptor.
The human D, cDNA was obtained from the laboratory of Dr. Marc Caron in the vector pCMV5. A 1.4 Kb Hind III to Xho I fragment was subcloned into the vector pMMLV. The plasmid pHD1MMLV was then sequenced completely. Transient transfections in COS-7 cells were performed and D1 specific binding was obtained. The construct pHD1MMLV was then transfected stably into CHO cells and 72 G418-resistant clones were isolated. High expressors were identified by mRNA dot blot analysis. Six high expressors were further characterized by binding and then clone CHO-D1M#9 was chosen for detailed pharmacological characterization. This clone was then grown in suspension culture for the purpose of obtaining enough protein to accommodate several months of screening.
B. Cell Culture Conditions
• 1. […] Cells are transferred to suspension culture when at least […] are available (this allows for 300,000 cells/ml in a 50 ml spinner flask; this is the ideal suspension density). Cells are removed from flasks with trypsin, spun down at 1000×G and resuspended the pellet in fresh medium: • 50% CHO-SFM-II+50% Ham's F12 w/10% FBS (final FBS conc. 5%)+400 μg/ml G418+1% P/S. • 3. After the transfer to suspension culture, growth is monitored and cell viability is assessed using trypan blue exclusion. Total and viable cell count on 5 sectors of the hemocytometer are recorded. When the viable cell density reaches 600,000 cell/ml, the volume is doubled. • 4. After 1 week of growth in the 50/50 medium, the cells are spun down and transferred to a new spinner flask and replaced with 75% CHO-SFM II/25% Ham's F12+10% FBS plus the pen-strep and G418. Thereafter every 3 days, the medium is replaced with new medium containing a decreasing amount of FBS as follows:
• 5. The final maintenance culturing medium is made up as follows: • A stock mixture of 10 ml of pen-strep, 0.5 ml of […] (active; final concentration: 200 μg/ml) G418 and 1 ml of FBS are mixed and filtered and refrigerated. A volume (11.5 ml) of this mixture is added to a freshly opened 1 L bottle of CHO-SFM II. C. Membrane Preparation
Cells are harvested into 250 ml centrifuge tubes and spun down at 1200×G. The medium is removed and 100 ml PBS (phosphate-buffered saline) is added to each centrifuge tube; cells are resuspended and spun down again. The PBS is removed and the final pellet is homogenized with a polytron on ice at a medium setting.
The membrane suspension is diluted in water and samples (10, 50 and 100 μl; q.s. to 100 μl with water) are diluted with 100 μl of 1% SDS. The sample is vortexed and allowed to stand for 5 min. Two aliquots each of the solubilized protein sample are placed in clean 13×100 test tubes for the assay. Instructions are followed as outlined in the BioRad DC protein determination kit (Catalog # 500-0112). OD readings that fall between 0.1-0.5 (mid-range of standard curve) should typically be used for calculations. Protein concentrations are calculated from a standard curve using bovine serum albumin as standard by linear regression and interpolation.
Following cell harvesting and protein determination, the homogenate is diluted with 10% DMSO to the correct volume based on Bmax and relative size of individual experiments to be conducted. The concentrated protein is stored in cryogenic vials in aliquots of 1-1.5 ml. Samples may be stored in −80° C. freezer or in liquid nitrogen.

[2] = molecular target: human dopamine D2Long (D2L) receptors (Homo sapiens, UniProt P14416)
Chain of human dopamine D2Long (D2L) receptors (P14416 whole entry): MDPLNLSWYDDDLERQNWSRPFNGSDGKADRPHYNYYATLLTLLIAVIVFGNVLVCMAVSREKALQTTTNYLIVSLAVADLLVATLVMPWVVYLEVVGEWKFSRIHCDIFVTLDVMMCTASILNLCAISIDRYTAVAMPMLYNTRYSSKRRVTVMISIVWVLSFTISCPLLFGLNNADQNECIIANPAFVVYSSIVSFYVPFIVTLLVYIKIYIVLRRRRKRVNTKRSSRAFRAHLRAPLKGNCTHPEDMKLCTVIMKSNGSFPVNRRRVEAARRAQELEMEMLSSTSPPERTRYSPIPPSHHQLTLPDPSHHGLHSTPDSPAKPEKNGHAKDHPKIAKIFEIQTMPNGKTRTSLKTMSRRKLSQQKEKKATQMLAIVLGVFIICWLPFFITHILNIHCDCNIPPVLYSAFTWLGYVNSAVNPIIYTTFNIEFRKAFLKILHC

Row | SMILES | Ki [1] | Ki [2]
1 | CNC[C@@H]1O[C@H](C2CCN(CC3CCCCC3)CC2)Cc2c1ccc(C)c2O [Example 96, (1R,3S)-3-(1-Cyclohexylmethyl-piperidin-4-yl)-6-methyl-1-methylaminomethyl-isochroman-5-ol dihydrochloride] | 265 nM | 552 nM
2 | Cc1ccc2c(c1O)C[C@@H](C1CCN(C(=O)OCc3ccccc3)CC1)O[C@H]2CN [Example 122, 4-((1R,3S)-1-Aminomethyl-5-hydroxy-6-methyl-isochroman-3-yl)-piperidine-1-carboxylic acid benzyl ester hydrochloride] | 92 nM | 751 nM
3 | Cc1ccc2c(c1O)C[C@@H](C1CCN(C(=O)Nc3ccccc3O)CC1)O[C@H]2CN [Example 127, 4-((1R,3S)-1-Aminomethyl-5-hydroxy-6-methyl-isochroman-3-yl)-piperidine-1-carboxylic acid (2-hydroxy-phenyl)-amide hydrochloride] | 105 nM | ≥ 10000 nM
4 | Cc1ccc2c(c1O)C[C@@H](C1CCN(C(=O)N(C)C)CC1)O[C@H]2CN [Example 132, 4-((1R,3S)-1-Aminomethyl-5-hydroxy-6-methyl-isochroman-3-yl)-piperidine-1-carboxylic acid dimethylamide hydrochloride] | 256 nM | ≥ 100000 nM
5 | Cc1ccc2c(c1O)C[C@@H](C1CCN(C(=O)N(C(C)C)C(C)C)CC1)O[C@H]2CN [Example 133, 4-((1R,3S)-1-Aminomethyl-5-hydroxy-6-methyl-isochroman-3-yl)-piperidine-1-carboxylic acid diisopropylamide hydrochloride] | 241 nM | ≥ 100000 nM
6 | Cc1ccc2c(c1O)C[C@@H](C1CCN(C(=O)N3CCOCC3)CC1)O[C@H]2CN [Example 134, [4-((1R,3S)-1-Aminomethyl-5-hydroxy-6-methyl-isochroman-3-yl)-piperidin-1-yl]-morpholin-4-yl-methanone hydrochloride] | 240 nM | ≥ 100000 nM
7 | CCN(CC)C(=O)N1CCC([C@@H]2Cc3c(ccc(C)c3O)[C@H](CN)O2)CC1 [Example 136, 4-((1R,3S)-1-Aminomethyl-5-hydroxy-6-methyl-isochroman-3-yl)-piperidine-1-carboxylic acid diethylamide hydrochloride] | 162 nM | ≥ 100000 nM
8 | Cc1ccc2c(c1O)C[C@@H](C1CCN(C(=O)N3c4ccccc4Sc4ccccc43)CC1)O[C@H]2CN [Example 137, [4-((1R,3S)-1-Aminomethyl-5-hydroxy-6-methyl-isochroman-3-yl)-piperidin-1-yl]-phenothiazin-10-yl-methanone hydrochloride] | 412 nM | 163 nM
9 | Cc1ccc2c(c1O)C[C@@H](C1CCN(C(=O)N3CCCCC3)CC1)O[C@H]2CN [Example 138, [4-((1R,3S)-1-Aminomethyl-5-hydroxy-6-methyl-isochroman-3-yl)-piperidin-1-yl]-piperidin-1-yl-methanone hydrochloride] | 198 nM | ≥ 100000 nM
10 | Cc1ccc2c(c1O)C[C@@H](C1CCN(S(=O)(=O)c3ccccc3)CC1)O[C@H]2CN [Example 141, (1R,3S)-1-Aminomethyl-3-(1-benzenesulfonyl-piperidin-4-yl)-6-methyl-isochroman-5-ol hydrochloride] | 193 nM | ≥ 100000 nM
11 | Cc1ccc2c(c1O)C[C@@H](C1CCN(S(=O)(=O)c3ccccc3C(F)(F)F)CC1)O[C@H]2CN [Example 143, (1R,3S)-1-Aminomethyl-6-methyl-3-[1-(2-trifluoromethyl-benzenesulfonyl)-piperidin-4-yl]-isochroman-5-ol hydrochloride] | 167 nM | 777 nM

Results, then the compound that gave them:

Row | Ki [1] | Ki [2] | SMILES
12 | 146 nM | 288 nM | Cc1ccc2c(c1O)C[C@@H](C1CCN(S(=O)(=O)c3ccc(C(C)C)cc3)CC1)O[C@H]2CN [Example 145, (1R,3S)-1-Aminomethyl-3-[1-(4-isopropyl-benzenesulfonyl)-piperidin-4-yl]-6-methyl-isochroman-5-ol hydrochloride]
13 | 183 nM | ≥ 100000 nM | Cc1ccc2c(c1O)C[C@@H](C1CCN(S(=O)(=O)c3ccc(Cl)cc3)CC1)O[C@H]2CN [Example 148, (1R,3S)-1-Aminomethyl-3-[1-(4-chloro-benzenesulfonyl)-piperidin-4-yl]-6-methyl-isochroman-5-ol hydrochloride]
14 | 213 nM | 589 nM | Cc1ccc2c(c1O)C[C@@H](C1CCN(S(=O)(=O)c3ccc(Cl)cc3Cl)CC1)O[C@H]2CN [Example 149, (1R,3S)-1-Aminomethyl-3-[1-(2,4-dichloro-benzenesulfonyl)-piperidin-4-yl]-6-methyl-isochroman-5-ol hydrochloride]
15 | 256 nM | ≥ 100000 nM | Cc1ccc2c(c1O)C[C@@H](C1CCN(S(=O)(=O)c3ccc(Cl)c(Cl)c3)CC1)O[C@H]2CN [Example 150, (1R,3S)-1-Aminomethyl-3-[1-(3,4-dichloro-benzenesulfonyl)-piperidin-4-yl]-6-methyl-isochroman-5-ol hydrochloride]
16 | 169 nM | ≥ 100000 nM | Cc1ccc2c(c1O)C[C@@H](C1CCN(S(=O)(=O)c3ccc(-c4ccccc4)cc3)CC1)O[C@H]2CN [Example 152, (1R,3S)-1-Aminomethyl-3-[1-(biphenyl-4-sulfonyl)-piperidin-4-yl]-6-methyl-isochroman-5-ol hydrochloride]
17 | 250 nM | ≥ 100000 nM | CCS(=O)(=O)N1CCC([C@@H]2Cc3c(ccc(C)c3O)[C@H](CN)O2)CC1 [Example 153, (1R,3S)-1-Aminomethyl-3-(1-ethanesulfonyl-piperidin-4-yl)-6-methyl-isochroman-5-ol hydrochloride]
18 | 270 nM | ≥ 100000 nM | CCCCS(=O)(=O)N1CCC([C@@H]2Cc3c(ccc(C)c3O)[C@H](CN)O2)CC1 [Example 154, (1R,3S)-1-Aminomethyl-3-[1-(butane-1-sulfonyl)-piperidin-4-yl]-6-methyl-isochroman-5-ol hydrochloride]
19 | 217 nM | ≥ 100000 nM | Cc1ccc2c(c1O)C[C@@H](C1CCN(S(=O)(=O)C(C)C)CC1)O[C@H]2CN [Example 155, (1R,3S)-1-Aminomethyl-6-methyl-3-[1-(Propane-2-sulfonyl)-piperidin-4-yl]-isochroman-5-ol hydrochloride]
20 | 139 nM | ≥ 100000 nM | CCCCCCCCS(=O)(=O)N1CCC([C@@H]2Cc3c(ccc(C)c3O)[C@H](CN)O2)CC1 [Example 156, (1R,3S)-1-Aminomethyl-6-methyl-3-[1-(octane-1-sulfonyl)-piperidin-4-yl]-isochroman-5-ol hydrochloride]
21 | 264 nM | ≥ 100000 nM | Cc1ccc2c(c1O)C[C@@H](C1CCN(S(=O)(=O)Cc3ccc(Cl)c(Cl)c3)CC1)O[C@H]2CN [Example 160, (1R,3S)-1-Aminomethyl-3-[1-(3,4-dichloro-phenylmethanesulfonyl)-piperidin-4-yl]-6-methyl-isochroman-5-ol hydrochloride]
22 | 382 nM | ≥ 100000 nM | Cc1ccc2c(c1O)C[C@@H](C1CCN(S(=O)(=O)C[C@@]34CC[C@@H](CC3=O)C4(C)C)CC1)O[C@H]2CN [Example 162, 1(R)-[4-((1R,3S)-1-Aminomethyl-5-hydroxy-6-methyl-isochroman-3-yl)-piperidine-1-sulfonylmethyl]-7,7-dimethyl-bicyclo[2.2.1]heptan-2-one hydrochloride]
